≈ marks a conversion by molar mass, not a printed value. Structures can show the parent of a compound that is named as a salt.
Key:
HEK293 cells = test: MTT dose-response IC50, HEK293 cells; assay type: cell-based; details: non-cancerous HEK293 cells, 24 h
Procedure: (§1) FaDu cells were obtained from the American Type Culture Collection (Rockville, MD, USA). HEK293 cells were kindly provided by Dr. Iliev lab at the Jill Roberts Institute for Inflammatory Bowel Disease, Weill Cornel Medicine of Cornel University (New York, NY, USA). All cells were cultivated in Dulbecco’s Modified Eagle Medium/Nutrient Mixture F-12 (DMEM/F-12) (Gibco, Waltham, MA, USA), 10% fetal bovine serum (FBS) (Gibco, Waltham, MA, USA), 100 U/mL penicillin, and 100 μg/mL streptomycin (P/S) (Gibco, Waltham, MA, USA). Culturing conditions were maintained at 37 °C in a humidified atmosphere containing 5% CO2. The culture medium was refreshed every 2–3 days, and cells were passaged upon reaching 70–80% confluence.
(§2) The in vitro inhibitory effects of the compounds were assessed by using the MTT assay. Briefly, cells were plated in 96-well plates at a density of 1 × 10⁴ cells per well. After the cells were allowed to adhere overnight at 37 °C in 5% CO₂, they were treated with compounds at a concentration of 100 µM in triplicate. Following a 20 h incubation, the MTT reagent was added, and the cells were further incubated for 4 h. The resulting formazan was solubilized in anhydrous DMSO, and absorbance was measured at 570 nm by using a microplate reader. Cell viability was calculated by using the following formula: ([AE − AB]/[AC − AB]) × 100%, where AE, AC, and AB represent the absorbance values of experimental samples, untreated controls, and blank wells, respectively. Data analysis was performed by using GraphPad Prism or QuickCalcs.
(§3) The data were fitted to a nonlinear regression model (GraphPad Prism version 9.0, GraphPad Software, San Diego, CA, USA) to calculate the IC50 values for each compound tested in triplicate.

FaDu cells [1] = test: MTT dose-response IC50, FaDu cells; assay type: cell-based; details: 0–100 µM, 24 h
Procedure: as §1, §2, §3

FaDu cells [2] = test: Hydrogen peroxide production assay in FaDu cells; assay type: cell-based; details: 6 h, 0.25% DMSO, versus untreated control
Procedure: FaDu cells were seeded on the 6-well plates and incubated with the compounds as described before. After incubation, cells were cooled down on ice, washed two times with ice-cold PBS, and scraped in PBS. Cells were centrifuged at 10,000× g for 10 min at 4 °C, the supernatant was discarded, and 650 µL of ice-cold PBS was added. Cells were sonicated and centrifuged at 10,000× g for 10 min at 4 °C to remove cell debris. The resulting supernatant was carefully collected for subsequent hydrogen peroxide analysis by using a commercial kit (Pierce™ Quantitative Peroxide Assay Kit (Aqueous), Catalog number 23280) (Invitrogen, ThermoFisher Scientific, Waltham, MA, USA).

S. aureus TCH 1516 [3] = test: Broth microdilution MIC, S. aureus TCH 1516; assay type: cell-based, Staphylococcus aureus; details: mecA MRSA isolate, USA300 lineage; CAMHB, 18 ± 2 h
From the text: (§4) The multidrug-resistant S. aureus strain TCH 1516 [USA 300-HOU-MR] was obtained from the American Type Culture Collection (ATCC, Manassas, VA, USA) (Table 1). E. faecalis AR-0671, multidrug-resistant E. coli AR-0001, K. pneumoniae AR-0003, P. aeruginosa AR-1114, and A. baumannii AR-0273 strains were acquired from the Centers for Disease Control and Prevention (CDC) AR isolate bank (Table 1). Prior to the initiation of this study, all microbial strains were stored in commercial cryopreservation systems at a temperature of −80 °C. The strains were cultivated on Columbia sheep blood agar (Becton Dickinson, Franklin Lakes, NJ, USA) or potato dextrose agar (PDA) for Candida (Becton Dickinson, Franklin Lakes, NJ, USA).
(§5) The antimicrobial activity of 3-((3-hydroxyphenyl)amino)propanoic acid derivatives was assessed by using the broth microdilution method, following the guidelines outlined by the Clinical Laboratory Standards Institute (CLSI), with modifications. In brief, the compounds were dissolved in dimethyl sulfoxide (DMSO) to attain a final concentration of 25–30 mg/mL. Vancomycin hydrochloride (MedChem express, Cat. No. HY-17362), cefazolin (MedChem express, Cat. No. HY-B1892), and meropenem (MedChem express, Cat. No. HY-13678) were used as control antimicrobial drugs and were dissolved in DMSO as described before. Dilution series were prepared in deep 96-well microplates to achieve a two-fold concentration range of 0.25, 0.5, 1, 2, 4, 8, 16, 32, and 64 µg/mL, utilizing cation-adjusted Mueller–Hinton broth (CAMHB) as the growth medium. The microplates containing the dilution series were then inoculated with fresh cultures of each tested organism to reach a final concentration of 5 × 10^4 CFU (colony-forming units) of the test organism in media containing 1% DMSO and 1× drug concentration, with a volume of 200 µL per well. Wells that were inoculated with medium containing 1% DMSO served as positive controls. Subsequently, the microplates were incubated at 35 ± 1 °C for 18 ± 2 h. Following the incubation period, the plates were examined by using a manual microplate viewer (Sensititre Manual Viewbox, ThermoFisher Scientific, Waltham, MA, USA). […] All experiments were conducted in duplicate with three technical replicates for each condition.

E. faecalis AR-0671 = test: Broth microdilution MIC, E. faecalis AR-0671; assay type: cell-based, Enterococcus faecalis; details: CAMHB; for MIC: Enterococcus faecalis, AR0671, 18 ± 2 h, read-out: minimal inhibitory concentration (MIC) E. faecalis AR-0671
From the text: as §4, §5

E. coli AR-0001 [4] = test: Broth microdilution MIC, E. coli AR-0001; assay type: cell-based, Escherichia coli; details: multidrug-resistant, KPC-3; CAMHB
From the text: as §4, §5

K. pneumoniae AR-0003 [5] = test: Broth microdilution MIC, K. pneumoniae AR-0003; assay type: cell-based, Klebsiella pneumoniae; details: KPC-3; CAMHB
From the text: as §4, §5

P. aeruginosa AR-1114 [6] = test: Broth microdilution MIC, P. aeruginosa AR-1114; assay type: cell-based, Pseudomonas aeruginosa; details: IMP-15; CAMHB
From the text: as §4, §5

A. baumannii AR-0273 = test: Broth microdilution MIC, A. baumannii AR-0273; assay type: cell-based, Acinetobacter baumannii; details: OXA-23, CAMHB; for MIC: Acinetobacter baumannii, AR0273, 18 ± 2 h, read-out: minimal inhibitory concentration (MIC) A. baumannii AR-0273
From the text: as §4, §5

FaDu cells [7] = test: MTT cell viability at fixed 100 µM, FaDu cells; assay type: cell-based; details: 24 h, described in words (Figure 2)
Procedure: Test compounds 2–25 were dissolved in hybridoma-grade dimethyl sulfoxide (Millipore, Sigma, Burlington, MA, USA) to prepare stock solutions at concentrations of 10–25 mg/mL. […] For in vitro anticancer activity screening, the compounds were thawed at room temperature, protected from light, and the aliquots were diluted in complete cell culture media to achieve a final concentration of 100 µM and used for the in vitro assays. The cytotoxicity assays were performed in triplicate.
as §1, §2

S. aureus TCH 1516 [8] = test: Broth microdilution MIC, S. aureus TCH 1516; assay type: cell-based; details: Staphylococcus aureus, MRSA / USA300, mecA MRSA isolate, USA300 lineage; CAMHB, 18 ±; read-out: minimal inhibitory concentration (MIC) S. aureus TCH 1516
E. coli AR-0001 [9] = test: Broth microdilution MIC, E. coli AR-0001; assay type: cell-based; details: Escherichia coli, AR0001; multidrug-resistant, KPC-3; CAMHB, 18 ± 2 h; read-out: minimal inhibitory concentration (MIC) E. coli AR-0001
K. pneumoniae AR-0003 [10] = test: Broth microdilution MIC, K. pneumoniae AR-0003; assay type: cell-based; details: Klebsiella pneumoniae, AR0003; KPC-3; CAMHB, 18 ± 2 h; read-out: minimal inhibitory concentration (MIC) K. pneumoniae AR-0003
P. aeruginosa AR-1114 [11] = test: Broth microdilution MIC, P. aeruginosa AR-1114; assay type: cell-based; details: Pseudomonas aeruginosa, AR1114; IMP-15; CAMHB, 18 ± 2 h; read-out: minimal inhibitory concentration (MIC) P. aeruginosa AR-1114
FaDu cells [12] = test: Superoxide dismutase (SOD) activity in FaDu cell lysate; assay type: cell-based; details: 6 h, 0.25% DMSO, versus untreated control (DMSO)
Procedure: FaDu cells were seeded onto 6-well tissue culture plates at a density of 5 × 10^5 cells per well and incubated overnight to allow for cell attachment. Following the incubation period, the cells were treated with the selected compounds dissolved in tissue culture medium containing 0.25% DMSO and incubated for an additional 6 h. After the treatment, the medium was aspirated, and the cells were washed twice with phosphate-buffered saline (PBS) to remove residual compounds. The cells were then trypsinized for 10 min to detach them from the culture surface. Following trypsinization, the cells were collected by centrifugation, washed with ice-cold PBS to remove any residual trypsin, and resuspended in 0.5 mL of ice-cold PBS. The cell suspension was then subjected to sonication on ice for disruption. After sonication, the samples were centrifuged at 10,000× g for 10 min at 4 °C to remove cell debris. The resulting supernatant was carefully collected for the subsequent assessment of SOD activity. The activity of superoxide dismutase (SOD) was determined by using a commercial colorimetric assay kit (Superoxide Dismutase (SOD) Colorimetric Activity Kit, Catalog Number EIASODC) (Invitrogen, ThermoFisher Scientific, Waltham, MA, USA) following the manufacturer’s instructions.

Compound	IC50 (HEK293 cells) [µM]	IC50 (FaDu cells [1]) [µM]	hydrogen peroxide levels (optical density at 525 nm) (FaDu cells [2])	minimal inhibitory concentration (MIC) S. aureus TCH 1516 (S. aureus TCH 1516 [3]) [µg/mL]	minimal inhibitory concentration (MIC) E. faecalis AR-0671 (E. faecalis AR-0671) [µg/mL]	MIC (E. faecalis AR-0671) [µg/mL]	minimal inhibitory concentration (MIC) E. coli AR-0001 (E. coli AR-0001 [4]) [µg/mL]	minimal inhibitory concentration (MIC) K. pneumoniae AR-0003 (K. pneumoniae AR-0003 [5]) [µg/mL]	minimal inhibitory concentration (MIC) P. aeruginosa AR-1114 (P. aeruginosa AR-1114 [6]) [µg/mL]	MIC (A. baumannii AR-0273) [µg/mL]	minimal inhibitory concentration (MIC) A. baumannii AR-0273 (A. baumannii AR-0273) [µg/mL]	post-treatment viability (MTT assay) (FaDu cells [7])	MIC (S. aureus TCH 1516 [8]) [µg/mL]	MIC (E. coli AR-0001 [9]) [µg/mL]	MIC (K. pneumoniae AR-0003 [10]) [µg/mL]	MIC (P. aeruginosa AR-1114 [11]) [µg/mL]	IC50 (HEK293 cells; Homo sapiens) [µM]	IC50 (FaDu cells [1]; Homo sapiens) [µM]	SOD activity (U/mL of cell lysate) (FaDu cells [12])
N.N.[Cl][Pt][Cl] [CP, Cisplatin, reference compound]	15.9	16.3	lower level of hydrogen peroxide production than the tested compounds																
O=C(O)CCN(CCC(=O)O)c1cccc(O)c1 [Compound 2, 3,3′-((3-Hydroxyphenyl)azanediyl)dipropionic Acid]				>64	>64	> 64	>64	>64	>64	> 64	>64	minimal cytotoxicity	> 64	> 64	> 64	> 64			
O=C1CCN(c2cccc(O)c2)C(=O)N1 [Compound 5, 1-(3-Hydroxyphenyl)dihydropyrimidine-2,4(1H,3H)-dione]			significantly higher			32 (≈ 155 µM)				> 64			16 (≈ 77.6 µM)	> 64	> 64	> 64	41.8	9.9	significantly higher
O=C(CCN(CCC(=O)N/N=C/c1ccsc1)c1cccc(O)c1)N/N=C/c1ccsc1 [Compound 18]				>64	>64	> 64	>64	>64	>64	> 64	>64		> 64	> 64	> 64	> 64			
CC(C)=NNC(=O)CCN(CCC(=O)NN=C(C)C)c1cccc(O)c1 [Compound 19, 3,3′-((3-Hydroxyphenyl)azanediyl)bis(N′-(propan-2-ylidene)propanehydrazide)]				>64	>64	> 64	>64	>64	>64	> 64	>64	lower activity compared with compound 22	> 64	> 64	> 64	> 64			
COc1cccc2c1C(=O)c1c(O)c3c(c(O)c1C2=O)C[C@@](O)(C(=O)CO)C[C@@H]3O[C@H]1C[C@H](N)[C@H](O)[C@H](C)O1 [DOX, doxorubicin hydrochloride, reference compound]			significant increase															1.81	

Source: PMC12115217, “3,3′-((3-Hydroxyphenyl)azanediyl)dipropionic Acid Derivatives as a Promising Scaffold Against Drug-Resistant Pathogens and Chemotherapy-Resistant Cancer” (Pathogens, 2025)
